From PMC5560554, “Targeting of CDK9 with indirubin 3’-monoxime safely and durably reduces HIV viremia in chronically infected humanized mice” (PLoS ONE, 2017) come the findings set out here.

Like-named read-outs stand apart in the source and are kept apart here.

This experiment has as its system HIV-1 NL4-3. The experiment in a line: Drug susceptibility assay in PHA-activated PBMCs (HIV p24 ELISA day 7). Type of experiment: cell-based. As to conditions: for decrease of ART EC50 value at 1 μM IM: HIV-1 NL4-3 in PBMCs, EC50 without IM vs with 1 μM IM; for EC50: Human immunodeficiency virus 1, NL43, PBMC, 168 h, HIV NL4-3 in PBMCs, p24 day 7, (95% CI) in cell; for P24: PBMCs, NL4-3, day 7. Here is the method: The ARTs tenofovir, raltegravir and indinavir were obtained from the NIH AIDS Research and Reference Reagent Program (Gaithersburg, MD). Drug susceptibility assays were performed in PBMCs as previously. Briefly, donor PBMCs were activated by culture with phytohemagglutinin (PHA) for 3 days. Activated PBMCs were infected with HIV (M.O.I of 0.001) for 2 hours in the absence of IM or ARTs, washed to remove non-adsorbed virus, and plated in culture medium containing IL-2 and various dilutions of IM and ARTs alone and in combination. On day 3, fresh medium with fresh drug was added to the cultures. On day 7, cultures were evaluated for HIV production by measuring HIV p24 levels in the culture supernatants by ELISA (PerkinElmer Life Sciences, Inc., Boston, Massachusetts). Data were normalized to p24 levels in drug untreated controls (100%) and EC50 values determined by fitting the data to sigmoidal dose-response (variable slope) curves using GraphPad Prism 5.0 software.
A potential use of CDK9 inhibitor for the treatment of HIV will probably be in combination with ARTs from other classes. We thus evaluated the antiviral interaction between IM and ARTs from the NRTI, integrase and protease inhibitor classes in PBMCs infectivity assays in vitro. We used the virus strain HIV-1 NL4-3 to ensure a robust viral replication in the assays. Although HIV-1 NL4-3 differs from HIV-1 BaL in usage of coreceptor for cell entry, it is expected to have similar sensitivity to the tested ARTs. […] These enhancements of ART potencies by IM are consistent with targeting of different steps of the HIV cycle by IM and the tested ARTs.
On the technique in general: ELISA stands for enzyme-linked immunosorbent assay.

Where [1] appears, read: read-out: Geometric mean ART EC50, + 1μM IM.
[2] abbreviates: read-out: Geometric mean ART EC50, No IM.

As for `CC(C)(C)NC(=O)[C@@H]1CN(Cc2cccnc2)CCN1C[C@@H](O)C[C@@H](Cc1ccccc1)C(=O)N[C@H]1c2ccccc2C[C@H]1O` [IND, indinavir], the “decrease of ART EC50 value at 1 μM IM” value came to 2.2 fold. Besides, the concentration for a half-maximal effect (EC50) (usually the concentration that produces a half-maximal response) (+ 1μM IM, read-out: Geometric mean ART EC50) was found to be 3.55 nM. For the same molecule, the EC50 (No IM, read-out: Geometric mean ART EC50) turned out to be 7.74 nM. Also, the P24 (IND 1.8 nM, + IM) came to 2.00 ng/mL. Besides, the P24 (IND 1.8 nM, No IM) worked out at 41.00 ng/mL. For the same molecule, under “IND 5.5 nM, + IM”, the P24 was determined as 2.30 ng/mL. Besides, under “IND 5.5 nM, No IM”, the P24 was determined as 37.00 ng/mL. Also, the P24 (IND 16.6 nM, + IM) is 0.70 ng/mL. Where the note is “IND 16.6 nM, No IM”, the P24 is 17.00 ng/mL. For the same molecule, the P24 (IND 50 nM, + IM) was determined as 0.01 ng/mL. For the same molecule, the P24 (IND 50 nM, No IM) was found to be 0.01 ng/mL. Under “IND 150 nM, + IM”, the P24 worked out at 0.01 ng/mL. Moreover, the P24 (IND 150 nM, No IM) came to 0.01 ng/mL.
Consider `Cc1nnc(C(=O)NC(C)(C)c2nc(C(=O)NCc3ccc(F)cc3)c(O)c(=O)n2C)o1` [RAL, raltegravir], for which the “decrease of ART EC50 value at 1 μM IM” value stood at 3.3 fold. The EC50 under setting [1] is 2.12 nM. For the same molecule, under setting [2], the concentration for a half-maximal effect (EC50) amounted to 6.98 nM. The P24 (RAL 0.05 nM, + IM) stood at 9.50 ng/mL. The P24 (RAL 0.05 nM, No IM) came out at 27.0 ng/mL. Moreover, the P24 (RAL 0.15 nM, + IM) came to 6.00 ng/mL. Besides, the P24 (RAL 0.15 nM, No IM) was 23.0 ng/mL. Under “RAL 0.5 nM, + IM”, the P24 stood at 6.50 ng/mL. Also, the P24 (RAL 0.5 nM, No IM) was determined as 27.0 ng/mL. Moreover, the P24 (RAL 1.5 nM, + IM) stood at 5.00 ng/mL. For the same molecule, for the setting “RAL 1.5 nM, No IM”, the P24 came to 26.0 ng/mL. In addition, the P24 (RAL 5 nM, + IM) came out at 2.30 ng/mL. For the same molecule, where the note is “RAL 5 nM, No IM”, the P24 was 17.0 ng/mL. Further, for the setting “RAL 15 nM, + IM”, the P24 stood at 1.10 ng/mL. Further, the P24 (RAL 15 nM, No IM) was found to be 2.8 ng/mL. In addition, the P24 (RAL 45 nM, + IM) came out at 0.01 ng/mL. Moreover, under “RAL 45 nM, No IM”, the P24 stood at 0.6 ng/mL.
`C[C@H](Cn1cnc2c(N)ncnc21)OCP(=O)(O)O` [TDF, tenofovir]: the “decrease of ART EC50 value at 1 μM IM” value was found to be 3 fold. Further, under setting [1], the EC50 turned out to be 190 nM. Under setting [2], the concentration for a half-maximal effect (EC50) was 600 nM. Further, the P24 (TDF 0.01 µM, + IM) is 10.0 ng/mL. Moreover, the P24 (TDF 0.01 µM, No IM) turned out to be 63.0 ng/mL. Moreover, the P24 (TDF 0.03 µM, + IM) was 9.0 ng/mL. The P24 (TDF 0.03 µM, No IM) worked out at 61.0 ng/mL. In addition, the P24 (TDF 0.1 µM, + IM) was found to be 6.6 ng/mL. Further, for the setting “TDF 0.1 µM, No IM”, the P24 is 48.0 ng/mL. For the same molecule, the P24 (TDF 0.3 µM, + IM) came out at 3.8 ng/mL. Under “TDF 0.3 µM, No IM”, the P24 came to 35.0 ng/mL. Besides, the P24 (TDF 1 µM, + IM) came out at 1.7 ng/mL. Where the note is “TDF 1 µM, No IM”, the P24 was determined as 17.0 ng/mL. Besides, the P24 (TDF 3 µM, + IM) turned out to be 0.7 ng/mL. Under “TDF 3 µM, No IM”, the P24 stood at 4.0 ng/mL. Moreover, the P24 (TDF 10 µM, + IM) came out at 0.3 ng/mL. Further, the P24 (TDF 10 µM, No IM) amounted to 0.6 ng/mL.
